The values that follow come from patent US7517870B2, “Use of compounds that interfere with the hedgehog signaling pathway for the manufacture of a medicament for preventing, inhibiting, and/or reversing ocular diseases related with ocular neovascularization” (Fondazione Telethon, priority 2004, dated 2009).

In data set [1] the test system is retinal (ocular) neovascularization. In words: Angiography after fluorescein-dextran perfusion in mouse model of Retinopathy of Prematurity (ROP). Format: in vivo, C57/BL6 mice. To be noted: ROP mice.
From the text: To determine whether inhibition of the Shh signaling pathway by administration of an siRNA targeting Shh is able to reduce retinal (ocular) neovascularization, siRNA targeting Shh is administrated to a mouse model of Retinopathy of Prematurity (ROP).
C57/BL6 mice are used in this study. Mice from postnatal day 7 (P7) to P12 are exposed to hyperoxia (25% nitrogen, 75% oxygen). At P12 mice return to room air until P17. The group of five mice treated with siRNA targeting Shh receive a daily subretinal injection (1 μl) of 100 mg/ml siRNA targeting Shh dissolved in Phosphate-Buffered Saline (PBS) from P12 to P17, controls receive the vehicle alone.
The test system of data set [2] is VEGF protein expression in 293 cells. The note with it: HEK-293 cells, desferroxamine 100 μM, Cyclopamine 10 μM, 24 hours. The protocol: Five μl of 95% ethanol was added to untreated control.
Twenty-four hours after induction of hypoxia the supernatant of the 293 cells was removed from wells and a human VEGF ELISA (R & D Systems, Minneapolis, Minn.) was performed on the cell supernatants (FIG. 4) as described in the Quantikine human VEGF ELISA protocol using a dilution of
the medium of 1:10. ELISA results were read on a Bio-Rad Reader 550 ELISA plate reader (Bio-Rad Laboratories, Inc, CA).

Another data set relates to Hh-dependent tumors. To be noted: mice that carry Hh-dependent tumors; cited from earlier work.
The mark [3] stands for this setting: daily subretinal injection (1 μl) of 100 mg/ml siRNA in PBS from P12 to P17, angiography on P17, vs vehicle control eyes.

For `CC1=C2C[C@H]3[C@@H](CC=C4C[C@@H](O)CC[C@@]43C)[C@@H]2CC[C@]12O[C@@H]1C[C@H](C)CN[C@H]1[C@H]2C` [cyclopamine], the “inhibition of ocular neovascularization (neovascular tufts and vessel leakage)” value (shortened to “inhibition of ocular neovascularization”) in data set [1] (daily subcutaneous injection of 50 mg/kg from P12 to P17, angiography on P17, vs vehicle control eyes) is “Robust inhibition of ocular neovascularization”. For the same molecule, the “inhibition of hypoxia-induced VEGF expression” value in data set [2] is reported as “Able to Inhibit Hypoxia-Induced VEGF Expression”. Moreover, in the data set with Hh-dependent tumors, the “effect on Hh-dependent tumors” value is “growth inhibition and regression of cancerous tissue”; the “health of treated animals” value is listed as “does not affect the health of treated animals”.
Regarding “siRNA targeting Gli1: siRNA duplex, SEQ ID NO:19 (sense strand) and SEQ ID NO:20 (antisense strand) (sense ACGCCGCAGCAGCAGCUCCUU; antisense GGAGCUGCUGCUGCGGCGUUU; listed as RNA, chemistry not given here)”, the “inhibition of ocular neovascularization” value in data set [1] (setting [3]) is listed as “Robust inhibition of ocular neovascularization”.
As to “siRNA targeting Shh: siRNA duplex, SEQ ID NO:16 (sense strand) and SEQ ID NO:15 (antisense strand) (sense AAUUACAACCCCGACAUCAUAUU; antisense UAUGAUGUCGGGGUUGUAAUUUU; listed as RNA, chemistry not given here)”, the “inhibition of ocular neovascularization” value in data set [1] (setting [3]) is listed as “Robust inhibition of ocular neovascularization”.
With “siRNA targeting Smoothened: siRNA duplex, SEQ ID NO:17 (sense strand) and SEQ ID NO:18 (antisense strand) (sense AAGGCCUUCUCUAAGCGGCAUU; antisense UGCCGCUUAGAGAAGGCCUUUU; listed as RNA, chemistry not given here)”, the “inhibition of ocular neovascularization” value in data set [1] (setting [3]) is recorded as “Robust inhibition of ocular neovascularization”.

B1: soluble Hip1: secreted form of Hedgehog interacting protein 1 lacking the transmembrane domain (SEQ ID NO:6), produced in 293 cells (protein, listed as Mus musculus)
chain: MLKMLSFKLLLLAVALGFFEGDAKFGERNEGSGARRRRCLNGNPPKRLKRRDRRVMSQLELLSGGEILCGGFYPRVSCCLQSDSPGLGRLENKIFSATNNSECSRLLEEIQCAPCSPHSQSLFYTPERDVLDGDLALPLLCKDYCKEFFYTCRGHIPGLLQTTADEFCFYYARKDAGLCFPDFPRKQVRGPASNYLGQMEDYEKVGGISRKHKHNCLCVQEVMSGLRQPVSAVHSGDGSHRLFILEKEGYVKILTPEGELFKEPYLDIHKLVQSGIKGGDERGLLSLAFHPNYKKNGKLYVSYTTNQERWAIGPHDHILRVVEYTVSRKNPHQVDVRTARVFLEVAELHRKHLGGQLLFGPDGFLYIILGDGMITLDDMEEMDGLSDFTGSVLRLDVDTDMCNVPYSIPRSNPHFNSTNQPPEVFAHGLHDPGRCAVDRHPTDININLTILCSDSNGKNRSSARILQIIKGRGYESEPSLLEFKPFSNGPLVGGFVYRGCQSERLYGSYVFGDRNGNFLTLQQSPVTKQWQEKPLCLGASSSCRGYFSGHILGFGEDELGEVYILSSSKSMTQTHNGKLYKIVDPKRPLMPEECRVTVQPAQPLTSDCSRLCRNGYYTPTGKCCCSPGWEGDFCRIAKCEPACRHGGVCVRPNKCLCKKGYLGPQCEQVDRNVRRVTR
Regarding B1, the “inhibition of ocular neovascularization” value in data set [1] (daily subretinal injection of 50 mg/kg in PBS from P12 to P17, angiography on P17, vs vehicle control eyes) is “Robust inhibition of ocular neovascularization”.
